# From the supplement of paper PMC4862054
# Test system: MFM-223
# Experiment: normalised response (% of control), CellTox Green; higher = less cell death (100 = DMSO, 0 = benzethonium chloride kill control)
# Conditions: incubation time: 72 h
# Summary of the method: (§1)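 A 20 µl suspension of breast cancer cells was seeded into each well of 384-well plates containing compound at 5 concentrations in 10-fold steps over a compound-specific 10,000-fold range. After 72 h incubation, CellTox Green fluorescence (485/520 nm) was read first, and CellTiter-Glo luminescence was read after 10 min at room temperature. Each plate was normalised against 0.1 % DMSO (100) and a positive kill control (0), and each value is the normalised signal at one concentration.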
row,Compound,normalised response
1,CCCS(=O)(=O)Nc1ccc(F)c(C(=O)c2c[nH]c3ncc(-c4ccc(Cl)cc4)cc23)c1F [Vemurafenib] (100 nM),94.2%
2,CC[C@H](Nc1ncnc2[nH]cnc12)c1nc2cccc(F)c2c(=O)n1-c1ccccc1 [GS-1101] (100 nM),78%
3,CC(=O)Nc1cccc(-n2c(=O)n(C3CC3)c(=O)c3c(Nc4ccc(I)cc4F)n(C)c(=O)c(C)c32)c1 [Trametinib] (2.5 nM),72.4%
4,Nc1ccccc1NC(=O)c1ccc(CNC(=O)OCc2cccnc2)cc1 [Entinostat] (100 nM),99.3%

# Test system: Hs578T
# Experiment: as above
# Conditions: incubation time: 72 h
# Summary of the method: as §1
row,Compound,normalised response
1,O=C(O)CCCCC(CCSCc1ccccc1)SCc1ccccc1 (stereo not given) [CPI-613] (100 nM),105%
2,Nc1nc2[nH]cc(CCc3ccc(C(=O)N[C@@H](CCC(=O)O)C(=O)O)cc3)c2c(=O)[nH]1 [Pemetrexed] (100 nM),103%
3,Cc1cnc(NC(=O)Nc2cc(Br)c(C)cc2OC[C@@H]2CNCCO2)cn1 [Rabusertib] (10 nM),108%
4,CCCCC(=O)OCC(=O)[C@]1(O)Cc2c(O)c3c(c(O)c2[C@@H](O[C@H]2C[C@H](NC(=O)C(F)(F)F)[C@H](O)[C@H](C)O2)C1)C(=O)c1c(OC)cccc1C3=O [Valrubicin] (50 nM),114%
5,N#Cc1ccc(C(c2ccc(C#N)cc2)n2cncn2)cc1 [Letrozole] (100 nM),75.3%
6,CCCS(=O)(=O)Nc1ccc(F)c(C(=O)c2c[nH]c3ncc(-c4ccc(Cl)cc4)cc23)c1F [Vemurafenib] (100 nM),103%
7,CC[C@H](Nc1ncnc2[nH]cnc12)c1nc2cccc(F)c2c(=O)n1-c1ccccc1 [GS-1101] (100 nM),94%
8,CC(=O)Nc1cccc(-n2c(=O)n(C3CC3)c(=O)c3c(Nc4ccc(I)cc4F)n(C)c(=O)c(C)c32)c1 [Trametinib] (2.5 nM),89.9%
9,Nc1ccccc1NC(=O)c1ccc(CNC(=O)OCc2cccnc2)cc1 [Entinostat] (100 nM),109%

# Test system: HDQ-P1
# Experiment: as above
# Conditions: incubation time: 72 h
# Summary of the method: as §1
row,Compound,normalised response
1,O=C(O)CCCCC(CCSCc1ccccc1)SCc1ccccc1 (stereo not given) [CPI-613] (100 nM),107%
2,Nc1nc2[nH]cc(CCc3ccc(C(=O)N[C@@H](CCC(=O)O)C(=O)O)cc3)c2c(=O)[nH]1 [Pemetrexed] (100 nM),102%
3,Cc1cnc(NC(=O)Nc2cc(Br)c(C)cc2OC[C@@H]2CNCCO2)cn1 [Rabusertib] (10 nM),94.3%
4,CCCCC(=O)OCC(=O)[C@]1(O)Cc2c(O)c3c(c(O)c2[C@@H](O[C@H]2C[C@H](NC(=O)C(F)(F)F)[C@H](O)[C@H](C)O2)C1)C(=O)c1c(OC)cccc1C3=O [Valrubicin] (50 nM),107%
5,N#Cc1ccc(C(c2ccc(C#N)cc2)n2cncn2)cc1 [Letrozole] (100 nM),53.6%
6,CCCS(=O)(=O)Nc1ccc(F)c(C(=O)c2c[nH]c3ncc(-c4ccc(Cl)cc4)cc23)c1F [Vemurafenib] (100 nM),108%
7,CC[C@H](Nc1ncnc2[nH]cnc12)c1nc2cccc(F)c2c(=O)n1-c1ccccc1 [GS-1101] (100 nM),105%
8,CC(=O)Nc1cccc(-n2c(=O)n(C3CC3)c(=O)c3c(Nc4ccc(I)cc4F)n(C)c(=O)c(C)c32)c1 [Trametinib] (2.5 nM),98.6%
9,Nc1ccccc1NC(=O)c1ccc(CNC(=O)OCc2cccnc2)cc1 [Entinostat] (100 nM),107%

# Test system: BT-549
# Experiment: as above
# Conditions: incubation time: 72 h
# Summary of the method: as §1
row,Compound,normalised response
1,O=C(O)CCCCC(CCSCc1ccccc1)SCc1ccccc1 (stereo not given) [CPI-613] (100 nM),96.5%
2,Nc1nc2[nH]cc(CCc3ccc(C(=O)N[C@@H](CCC(=O)O)C(=O)O)cc3)c2c(=O)[nH]1 [Pemetrexed] (100 nM),96.6%
3,Cc1cnc(NC(=O)Nc2cc(Br)c(C)cc2OC[C@@H]2CNCCO2)cn1 [Rabusertib] (10 nM),95.7%
4,CCCCC(=O)OCC(=O)[C@]1(O)Cc2c(O)c3c(c(O)c2[C@@H](O[C@H]2C[C@H](NC(=O)C(F)(F)F)[C@H](O)[C@H](C)O2)C1)C(=O)c1c(OC)cccc1C3=O [Valrubicin] (50 nM),121%
5,N#Cc1ccc(C(c2ccc(C#N)cc2)n2cncn2)cc1 [Letrozole] (100 nM),96.3%
6,CCCS(=O)(=O)Nc1ccc(F)c(C(=O)c2c[nH]c3ncc(-c4ccc(Cl)cc4)cc23)c1F [Vemurafenib] (100 nM),94.2%
7,CC[C@H](Nc1ncnc2[nH]cnc12)c1nc2cccc(F)c2c(=O)n1-c1ccccc1 [GS-1101] (100 nM),105%
8,CC(=O)Nc1cccc(-n2c(=O)n(C3CC3)c(=O)c3c(Nc4ccc(I)cc4F)n(C)c(=O)c(C)c32)c1 [Trametinib] (2.5 nM),94.2%
9,Nc1ccccc1NC(=O)c1ccc(CNC(=O)OCc2cccnc2)cc1 [Entinostat] (100 nM),110%

# Test system: HCC1937
# Experiment: as above
# Conditions: incubation time: 72 h
# Summary of the method: as §1
row,Compound,normalised response
1,O=C(O)CCCCC(CCSCc1ccccc1)SCc1ccccc1 (stereo not given) [CPI-613] (100 nM),103%
2,Nc1nc2[nH]cc(CCc3ccc(C(=O)N[C@@H](CCC(=O)O)C(=O)O)cc3)c2c(=O)[nH]1 [Pemetrexed] (100 nM),88.5%
3,Cc1cnc(NC(=O)Nc2cc(Br)c(C)cc2OC[C@@H]2CNCCO2)cn1 [Rabusertib] (10 nM),119%
4,N#Cc1ccc(C(c2ccc(C#N)cc2)n2cncn2)cc1 [Letrozole] (100 nM),83.5%
5,CCCS(=O)(=O)Nc1ccc(F)c(C(=O)c2c[nH]c3ncc(-c4ccc(Cl)cc4)cc23)c1F [Vemurafenib] (100 nM),92.1%
6,CC[C@H](Nc1ncnc2[nH]cnc12)c1nc2cccc(F)c2c(=O)n1-c1ccccc1 [GS-1101] (100 nM),87.8%
7,CC(=O)Nc1cccc(-n2c(=O)n(C3CC3)c(=O)c3c(Nc4ccc(I)cc4F)n(C)c(=O)c(C)c32)c1 [Trametinib] (2.5 nM),117%
8,Nc1ccccc1NC(=O)c1ccc(CNC(=O)OCc2cccnc2)cc1 [Entinostat] (100 nM),101%

# Test system: MDA-MB-436
# Experiment: as above
# Conditions: incubation time: 72 h
# Summary of the method: as §1
row,Compound,normalised response
1,Nc1nc2[nH]cc(CCc3ccc(C(=O)N[C@@H](CCC(=O)O)C(=O)O)cc3)c2c(=O)[nH]1 [Pemetrexed] (100 nM),58.9%
